Measurements published in patent publication US20260234188A1, “CHEMOKINE-BINDING PEPTIDES” (Oxford University Innovation Limited, priority 2022, published 2026).
Ends that are not written are not given here. Peptide text beside a SMILES is read from it.

Legend:
CXCL6 = target: T1, CXCL6 (Homo sapiens, UniProt P80162); assay: cell-based; conditions: HD2 mutant peptides 10 μM, chemokine at EC80
T1 sequence (P80162 38-114): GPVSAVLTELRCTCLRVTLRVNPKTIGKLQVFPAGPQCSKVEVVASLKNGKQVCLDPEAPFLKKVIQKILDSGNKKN
Procedure: FIG. 11. […] Technical replicates are shown as individual data points. […] The response curve (solid blue line) and its 95% confidence interval (grey ribbon) were calculated using a 4-parameter log-logistic plot.
(§1) The J:CXCR1 cell line was generated by transfecting Jurkat cells by electroporation with PvuI-linearized plasmid D1398 and selecting with blasticidin (Sigma-Aldrich, Cat #203350, […]). […] J:CXCR1 cells were cultured in RPMI-1640 media (Gibco), supplemented with 10% FBS and 5 mM L-Glutamine with blasticidin. For J:CXCR1 migration assays, 300,000 cells/well were added to the top chamber of a 3 μm Transwell insert (Corning) in 50 μL of migration media (RPMI-1640, 0.5% FBS, 4 mM L-Glutamine, 0.05% DMSO). The bottom chamber contained 150 μL of chemokine, with or without peptide. Cells were migrated at 37° C. in 5% CO2 for 4 hours. The plate was incubated on a shaking platform for 10 minutes, 800 rpm, at 37° C., and 150 μL from the bottom of the plate transferred into a U-bottom plate containing 50 μL of migration media. Cell counts were determined by Attune NxT Flow Cytometer Plate Reader (ThermoFisher), based on cell size parameters FSC-H/SSC-H. Experiments were performed in 3 technical and 3 biological replicates. THP-1 migration assays were carried out using methods known in the art. Activated T-cell assays were carried out using methods known in the art, with the following modifications in the isolation process. Peripheral blood cells were obtained from leucocyte cones (NHS Blood Transfusion Services), following which, T-cells were isolated using two rounds of human CD8+ T-cell isolation kit (480011, BioLegend). At day 10 after activation, T-cells were frozen at 20 E6 cells/ml in TexMACS medium supplemented with 10% DMSO (D2650, Sigma) in liquid nitrogen. Prior to use, activated T-cells were recovered for 24 hours in TexMACs medium at 0.3 E6 cells/ml and incubated at 37° C. in 5% CO2. Chemokine sources are described in Supplementary information Table 3. Statistical significances between control experimental groups was evaluated using Dunnett's test. IC50 experiments were performed at the EC80 dose of chemokine. EC80 was calculated by fitting a chemokine dose-response curve with 3 parameters (fixing the top to 100%). IC50 was calculated by fitting an inhibitor response curve with 4 parameters.
(§2) Migration assays using THP1, activated T-cell (ATC) and J:CXCR1 (Jurkat cells stably transfected with CXCR1 receptor) were performed as described previously. IC50 experiments were performed at the EC80 dose of chemokine. EC80 was calculated by fitting a chemokine dose-response curve with 3 parameters (fixing the top to 100%). IC50 was calculated by fitting an inhibitor response curve with 4 parameters. R-packages used were ggupset_0.3.0, DescTools_0.99.44, and drc_3.0-1.

CXCL5 = target: T2, CXCL5 (Homo sapiens, UniProt P42830); assay: CXCL5-induced cell migration assay; type: cell-based; conditions: HD2 mutant peptides 10 μM, chemokine at EC80
T2 sequence (P42830 37-114): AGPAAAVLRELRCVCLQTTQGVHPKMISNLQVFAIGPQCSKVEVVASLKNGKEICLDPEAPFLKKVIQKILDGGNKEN
Procedure: (§3) FIGS. 24 and 25. Effect of exemplar mutant HD2 peptides on chemotaxis. Box-whisker plots showing the effect of the exemplar mutant HD2 peptides on cell migration induced by indicated human chemokines. All experiments were performed as at least three technical and between one to three biological replicates, and individual data points are indicated. […] Chemokine and cell type names are indicated. HD2SCR is a scrambled version of HD2 used as negative control. All peptides were at 10 μM final concentration and chemokines at EC80 doses. Statistically significant differences (compared to control, coloured blue), using Dunnett's test with correction for multiple comparisons, are indicated by asterisks: ****=P≤0.0001, ***=P≤0.001, **=P≤0.01, *=P≤0.05.
The J:CXCR1 cell line was generated by transfecting Jurkat cells by electroporation with PvuI-linearized plasmid D1398 and selecting with blasticidin (Sigma-Aldrich, Cat #203350, […]). […] J:CXCR1 cells were cultured in RPMI-1640 media (Gibco), supplemented with 10% FBS and 5 mM L-Glutamine with blasticidin. For J:CXCR1 migration assays, 300,000 cells/well were added to the top chamber of a 3 μm Transwell insert (Corning) in 50 μL of migration media (RPMI-1640, 0.5% FBS, 4 mM L-Glutamine, 0.05% DMSO). […] Cell counts were determined by Attune NxT Flow Cytometer Plate Reader (ThermoFisher), based on cell size parameters FSC-H/SSC-H. Experiments were performed in 3 technical and 3 biological replicates. […] Statistical significances between control experimental groups was evaluated using Dunnett's test. […] EC80 was calculated by fitting a chemokine dose-response curve with 3 parameters (fixing the top to 100%). IC50 was calculated by fitting an inhibitor response curve with 4 parameters.
as §2, with “IC50 experiments were performed at the EC80 dose of chemokine.” left out, “R-packages used were ggupset_0.3.0, DescTools_0.99.44, and drc_3.0-1.” left out

CXCL9 = target: T3, CXCL9 (Homo sapiens, UniProt Q07325); assay: CXCL9-induced activated T-cell migration, transwell assay; type: cell-based; conditions: HD2 mutant peptides 10 μM, chemokine at EC80
T3 construct: purchased Peprotech
T3 sequence (Q07325 23-125): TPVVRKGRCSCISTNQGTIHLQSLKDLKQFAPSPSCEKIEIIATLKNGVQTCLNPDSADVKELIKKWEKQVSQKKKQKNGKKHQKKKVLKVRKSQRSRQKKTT
Procedure: FIG. 2. […] BK1.2 is described in (Darlot, 2020). […] Chemokines used are indicated by the name, followed in parenthesis by the supplier code (P in supplier code indicates Peprotech). […] All experiments were performed at EC80 doses of indicated chemokine. Data are shown as box-whisker plots of three technical and three biological replicates. Statistically significant differences (compared to control, indicated by #), using Dunnett's test with correction for multiple comparisons, are indicated by asterisks: ****=P≤0.0001, ***=P≤0.001, **=P≤0.01, *=P≤0.05.
Briefly, cell migration assays use THP1 cells (human monocyte) and primary human buffy coat white cells (consisting of neutrophil granulocytes, monocytes, and lymphocytes), and activated T-cells. THP1 cells and primary monocytes respond to CCL2, CCL3, CCL5, CCL8 and CXCL4, granulocytes to CXCL1 and CXCL8, activated T-cells to CXCL9/10/11. Assays are performed in 96-well Boyden chambers, and migrated cells counted and characterized using and ATTUNE Flow Cytometer as described. Triplicate assays are performed at the EC80 dose of each chemokine at 10 μM peptide concentration.
as §1

CXCL12 = CXCL12 (Homo sapiens, UniProt P48061); type: cell-based; parameters: activity in inhibiting migration of activated T cells in comparison to HD2_Y5W: dose or concentration left out as unconfirmed; conditions: chemokine at EC80; for chemotaxis compared with the parental HD2 peptide: HD2 mutant peptides 10 μM
Procedure: FIG. 22. Effect of selected combinatorial HD2 mutations on chemotaxis. FIG. 22A. Box-whisker plot showing the effect of the exemplar single and combinatorically mutant (CM) HD2 peptides on activated-T cell (ATC) migration induced by CXCL12. All experiments were performed as at least three technical and three biological replicates, and individual data points are indicated. […] HD2SCR is a scrambled version of HD2. […] Statistically significant differences (compared to control, HD2_Y5W, coloured blue), using Dunnett's test with correction for multiple comparisons, are indicated by asterisks: ****=P≤0.0001, ***=P≤0.001, **=P≤0.01, *=P≤0.05. All comparisons were made to HD2_Y5W, as it is present in CM539, CM452, and CM304. […] Technical replicates are shown as individual data points. […] The response curve (solid blue line) and its 95% confidence interval (grey ribbon) were calculated using a 4-parameter log-logistic plot. The agonist and estimated IC50 (dotted green line) are indicated.
as §1, §2

CCL14 = target: T4, CCL14 (Homo sapiens, UniProt Q16627); assay: CCL14-induced cell migration assay; type: cell-based; conditions: HD2 mutant peptides 10 μM, chemokine at EC80
T4 sequence (Q16627 20-93): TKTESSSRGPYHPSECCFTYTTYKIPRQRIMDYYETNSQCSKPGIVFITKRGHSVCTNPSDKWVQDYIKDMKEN
Procedure: as §3, with “Statistically significant differences (compared to control, coloured blue), using Dunnett's test with correction for multiple comparisons, are indicated by asterisks: ****=P≤0.0001, ***=P≤0.001, **=P≤0.01, *=P≤0.05.” left out
The J:CXCR1 cell line was generated by transfecting Jurkat cells by electroporation with PvuI-linearized plasmid D1398 and selecting with blasticidin (Sigma-Aldrich, Cat #203350, 5 g/mL). […] Cell counts were determined by Attune NxT Flow Cytometer Plate Reader (ThermoFisher), based on cell size parameters FSC-H/SSC-H. Experiments were performed in 3 technical and 3 biological replicates. […] Statistical significances between control experimental groups was evaluated using Dunnett's test. […] EC80 was calculated by fitting a chemokine dose-response curve with 3 parameters (fixing the top to 100%). IC50 was calculated by fitting an inhibitor response curve with 4 parameters. […]

Sequence of CXCL12 (P48061 22-89 limits assumed): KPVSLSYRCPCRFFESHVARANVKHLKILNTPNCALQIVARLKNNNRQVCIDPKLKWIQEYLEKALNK

Molecule	chemotaxis compared with the parental HD2 peptide (CXCL6)	chemotaxis compared with the parental HD2 peptide (CXCL5)	chemotaxis compared with the parental HD2 peptide (CXCL9)	chemotaxis compared with the parental HD2 peptide (CXCL12)	activity in inhibiting migration of activated T cells in comparison to HD2_Y5W (CXCL12; peptides final concentration as printed)	chemotaxis compared with the parental HD2 peptide (CCL14)
CC(C)C[C@H](NC(=O)[C@@H]1CCCN1C(=O)[C@H](C)NC(=O)[C@H](Cc1ccc(O)cc1)NC(=O)[C@H](C)NC(=O)[C@@H](NC(=O)[C@H](Cc1ccc(O)cc1)NC(=O)[C@H](CC(=O)O)NC(=O)[C@H](CC(=O)O)NC(=O)[C@H](CCC(=O)O)NC(=O)[C@@H](N)CCC(=O)O)[C@@H](C)O)C(=O)N[C@H](C(=O)N[C@@H](CS)C(=O)N[C@@H](Cc1ccc(O)cc1)C(=O)N[C@@H](Cc1ccccc1)C(=O)N[C@@H](CS)C(N)=O)[C@@H](C)O [HD2_C16, EEDDYTAYAPLTCYFC] (H-EEDDYTAYAPLTCYFC-NH2; N-terminus assumed)	significant reduction in chemotaxis	significant reduction in chemotaxis	significant reduction in chemotaxis	significant reduction in chemotaxis	potent inhibitor	significant reduction in chemotaxis
EEDDWTAYAPLTCYFT-NH2 [HD2_W5, EEDDWTAYAPLTCYFT]	–	–	significant reduction in chemotaxis	significant reduction in chemotaxis	–	–
EEDDYTAYWPLTCYFT [A9W]	significant reduction in chemotaxis	significant reduction in chemotaxis	significant reduction in chemotaxis	significant reduction in chemotaxis	–	–
EEDDYWAYAPLTCYFT [HD2_W6]	significant reduction in chemotaxis	significant reduction in chemotaxis	significant reduction in chemotaxis	–	–	–
